Reference: US9133235B2, “Macrocyclic antagonists of the motilin receptor for treatment of gastrointestinal dysmotility disorders” (Ocera Therapeutics, Inc., priority 2006, dated 2015)

Biological target: human motilin receptor (Homo sapiens, UniProt O43193)
Assay: Competitive radioligand binding assay (motilin receptor)
Parameters: purchased PerkinElmer (SignalScreen) 6110544; host or cells: CHO cells, stably transfected; membranes
Details: [125I]-motilin competition, membranes of CHO cells with human motilin receptor; read-out: Ki
Description: A. Competitive Radioligand Binding Assay (Motilin Receptor)
The competitive binding assay at the human motilin receptor was carried out analogously to assays described in the literature.
• Membranes were prepared from CHO cells stably transfected with the human motilin receptor and utilized at a quantity of 1.5 μg/assay point. [PerkinElmer™ SignalScreen Product #6110544] • [^125I]-Motilin (PerkinElmer, #NEX-378); final concentration: 0.04-0.06 nM • Motilin (Bachem™, #H-4385); final concentration: 1 μM • Multiscreen Harvest plates-GF/B (Millipore™, #MAHFB1H60) • Deep-well polypropylene titer plate (Beckman Coulter™, #267006) • TopSeal-A (PerkinElmer, #6005185) • Bottom seal (Millipore, #MATAH0P00) • MicroScint-0 (PerkinElmer, #6013611) • Binding Buffer: 50 mM Tris-HCl (pH 7.4), 10 mM MgCl2, 1 mM EDTA, 0.1% BSA Assay Volumes: • 150 μL of membranes diluted in binding buffer • 10 μL of compound diluted in binding buffer • 10 μL of radioligand ([^125I]-Motilin) diluted in binding buffer Final Test Concentrations (N=11) for Compounds: • 10, 5.0, 2.0, 1.0, 0.50, 0.20, 0.10, 0.050, 0.020, 0.010, 0.0050 μM. Compound Handling:
Compounds were provided frozen on dry ice at a stock concentration of 10 mM diluted in 100% DMSO and stored at −20° C. until the day of testing. On the test day, compounds were allowed to thaw at room temperature and than diluted in assay buffer according to the desired test concentrations. Under these conditions, the maximum final DMSO concentration in the assay was 0.5%.
In deep-well plates, diluted cell membranes (1.5 μg/mL) are combined with 10 μL of either binding buffer (total binding, N=5), 1 μM motilin (non-specific binding, N=3) or the appropriate concentration of test compound. The reaction is initiated by addition of 10 μL of [^125I]-motilin (final conc. 0.04-0.06 nM) to each well. Plates are sealed with TopSeal-A, vortexed gently and incubated at room temperature for 2 hours. The reaction is arrested by filtering samples through pre-soaked (0.3% polyethyleneimine, 2 h) Multiscreen Harvest plates using a Tomtec Harvester, washed 9 times with 500 μL of cold 50 mM Tris-HCl (pH 7.4), and than plates are air-dried in a fumehood for 30 minutes. A bottom seal is applied to the plates prior to the addition of 25 μL of MicroScint-0 to each well. Plates are than sealed with TopSeal-A and counted for 30 sec per well on a TopCount Microplate Scintillation and Luminescence Counter (PerkinElmer) where results are expressed as counts per minute (cpm).
Data are analyzed by GraphPad™ Prism® (GraphPad Software, San Diego, Calif.) using a variable slope non-linear regression analysis.
[formula] where total and non-specific binding represent the cpm obtained in the absence or presence of 1 μM motilin, respectively.

Chain of human motilin receptor (O43193 whole entry): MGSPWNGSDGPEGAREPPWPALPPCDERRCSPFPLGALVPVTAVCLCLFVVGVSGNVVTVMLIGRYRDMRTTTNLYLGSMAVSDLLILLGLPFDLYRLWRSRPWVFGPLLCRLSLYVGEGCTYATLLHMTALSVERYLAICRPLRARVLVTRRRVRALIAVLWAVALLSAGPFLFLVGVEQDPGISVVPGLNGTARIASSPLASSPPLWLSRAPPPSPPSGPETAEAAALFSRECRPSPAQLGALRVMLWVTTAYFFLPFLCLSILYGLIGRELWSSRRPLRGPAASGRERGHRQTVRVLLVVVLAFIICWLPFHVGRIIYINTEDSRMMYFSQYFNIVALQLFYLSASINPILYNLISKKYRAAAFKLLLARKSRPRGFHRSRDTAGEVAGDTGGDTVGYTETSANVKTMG

SMILES	Ki [nM]
CC(C)[C@H]1NC(=O)[C@@H](Cc2cccc(F)c2)NCCOc2ccccc2C[C@@H](C)CNC(=O)[C@H](CN(C)C)NC1=O [Compound 514]	≤ 1000
CC(C)[C@H]1NC(=O)[C@@H](Cc2cccc(Cl)c2)NCCOc2ccccc2CCCNC(=O)[C@H](CNC2=NCCCN2)NC1=O [Compound 521]	≤ 100
CC(C)[C@H]1NC(=O)[C@@H](Cc2cccc(Cl)c2)NCCOc2ccccc2CCCNC(=O)[C@H](CN/C(N)=N/C#N)NC1=O [Compound 522]	≤ 100
CC(C)[C@H]1NC(=O)[C@@H](Cc2cccc(C(F)(F)F)c2)NCCOc2ccccc2CCCNC(=O)[C@H](Cn2nncc2CN)NC1=O [Compound 523]	≤ 100
CC(C)[C@H]1NC(=O)[C@@H](Cc2cccc(C(F)(F)F)c2)NCCOc2ccccc2CCCNC(=O)[C@H](CNc2ncccn2)NC1=O [Compound 524]	≤ 100
CC(C)[C@H]1NC(=O)[C@@H](Cc2cccc(C(F)(F)F)c2)NCCOc2ccccc2CCCNC(=O)[C@H](CN2CCOCC2)NC1=O [Compound 525]	≤ 100
Cc1cnnn1C[C@@H]1NC(=O)[C@@H](C(C)C)NC(=O)[C@@H](Cc2cccc(C(F)(F)F)c2)NCCOc2ccccc2CCCNC1=O [Compound 526]	≤ 100
Cc1nnnn1C[C@@H]1NC(=O)[C@@H](C(C)C)NC(=O)[C@@H](Cc2cccc(C(F)(F)F)c2)NCCOc2ccccc2CCCNC1=O [Compound 527]	≤ 100
Cc1nnn(C[C@@H]2NC(=O)[C@@H](C(C)C)NC(=O)[C@@H](Cc3cccc(C(F)(F)F)c3)NCCOc3ccccc3CCCNC2=O)c1C [Compound 528]	≤ 100
CCC[C@@H]1NC(=O)[C@@H](C(C)C)NC(=O)[C@@H](Cc2ccc(C(F)(F)F)cc2)NCCOc2ccccc2CCCNC1=O [Compound 575]	≤ 100
CC(C)[C@H]1NC(=O)[C@@H](Cc2ccc(Cl)cc2)NCCOc2ccccc2CCCNC(=O)[C@H](CNS(C)(=O)=O)NC1=O [Compound 576]	≤ 1000
CC(C)[C@H]1NC(=O)[C@@H](Cc2ccc(Cl)cc2)NCCOc2ccccc2CCCNC(=O)[C@H](CNC(N)=O)NC1=O [Compound 577]	≤ 1000
CC(C)NC[C@@H]1NC(=O)[C@@H](C(C)C)NC(=O)[C@@H](Cc2ccc(O)cc2)NCCOc2ccccc2CCCNC1=O [Compound 579]	≤ 1000
CC(C)NC[C@@H]1NC(=O)[C@@H](C(C)C)NC(=O)[C@@H](Cc2ccc(Cl)cc2)NCCOc2ccccc2CCCNC1=O [Compound 581]	≤ 100
COc1ccc(C[C@H]2NCCOc3ccccc3CCCNC(=O)[C@H](CCO)NC(=O)[C@@H](C(C)C)NC2=O)cc1 [Compound 583]	≤ 1000
CC(C)[C@H]1NC(=O)[C@@H](Cc2cccc(F)c2)NCCOc2ccccc2CCCNC(=O)[C@H](CC2CC2)NC1=O [Compound 584]	≤ 100
CC(C)[C@H]1NC(=O)[C@@H](Cc2cccc(F)c2)NCCOc2ccccc2C[C@@H](C)CNC(=O)[C@H](CC2CC2)NC1=O [Compound 587]	≤ 100

Continued, values first:

Ki [nM]	SMILES
≤ 100	CC(C)[C@H]1NC(=O)[C@@H](Cc2cccc(Cl)c2)NCCOc2ccccc2CCCNC(=O)[C@H](CCNC(=N)N)NC1=O [Compound 507]
≤ 100	CC(C)[C@H]1NC(=O)[C@@H](Cc2cccc(Cl)c2)NCCOc2ccccc2CCCNC(=O)[C@H](CNc2nccs2)NC1=O [Compound 509]
≤ 100	CC(C)[C@H]1NC(=O)[C@@H](Cc2cccc(Cl)c2)NCCOc2ccccc2CCCNC(=O)[C@H](CC(=N)N)NC1=O [Compound 518]
≤ 10	CC(C)C[C@@H]1NC(=O)[C@@H](C(C)C)NC(=O)[C@@H](Cc2cccc(F)c2)N[C@@H](C)COc2ccccc2CCCNC1=O [Compound 556]
≤ 10	CCC[C@@H]1NC(=O)[C@@H](CC)NC(=O)[C@@H](Cc2cccc(F)c2)N[C@@H](C)COc2ccccc2CCCNC1=O [Compound 558]
≤ 10	CC(C)[C@H]1NC(=O)[C@@H](Cc2ccc(F)cc2)N[C@@H](C)COc2ccccc2CCCNC(=O)[C@H](CC2CC2)NC1=O [Compound 559]
≤ 10	CCC[C@@H]1NC(=O)[C@@H](C(C)C)NC(=O)[C@@H](Cc2ccc(F)cc2)N[C@@H](C)COc2ccccc2CCCNC1=O [Compound 560]
≤ 10	CCC[C@@H]1NC(=O)[C@@H](C(C)C)NC(=O)[C@@H](Cc2ccc(F)c(F)c2)N[C@@H](C)COc2ccccc2CCCNC1=O [Compound 561]
≤ 10	CCC[C@@H]1NC(=O)[C@@H](C(C)C)NC(=O)[C@@H](Cc2cccc(OC)c2)N[C@@H](C)COc2ccccc2CCCNC1=O [Compound 562]
≤ 10	C[C@@H]1CNC(=O)[C@H](CC2CC2)NC(=O)[C@@H](C2CC2)NC(=O)[C@@H](Cc2cccc(F)c2)NCCOc2ccccc2C1 [Compound 566]
≤ 10	CC(C)[C@H]1NC(=O)[C@@H](Cc2ccc(F)cc2)NCCOc2ccccc2C[C@H](C)CNC(=O)[C@H](CC2CC2)NC1=O [Compound 567]
≤ 10	CC(C)[C@H]1NC(=O)[C@@H](Cc2cccc(F)c2)NCCOc2ccccc2C[C@H](C)CNC(=O)[C@H](CC2CC2)NC1=O [Compound 588]

Same assay, conditions: previously determined during membrane characterization

SMILES	Kd [nM]
CC[C@H](C)[C@H](NC(=O)[C@@H]1CCCN1C(=O)[C@@H](NC(=O)[C@@H](N)Cc1ccccc1)C(C)C)C(=O)N[C@@H](Cc1ccccc1)C(=O)N[C@H](C(=O)N[C@@H](Cc1ccc(O)cc1)C(=O)NCC(=O)N[C@@H](CCC(=O)O)C(=O)N[C@@H](CC(C)C)C(=O)N[C@@H](CCC(N)=O)C(=O)N[C@@H](CCCNC(=N)N)C(=O)N[C@@H](CCSC)C(=O)N[C@@H](CCC(N)=O)C(=O)N[C@@H](CCC(=O)O)C(=O)N[C@@H](CCCCN)C(=O)N[C@@H](CCC(=O)O)C(=O)N[C@@H](CCCNC(=N)N)C(=O)N[C@@H](CC(N)=O)C(=O)N[C@@H](CCCCN)C(=O)NCC(=O)N[C@@H](CCC(N)=O)C(=O)O)[C@@H](C)O [[^125I]-motilin, [^125I]-Motilin, reference compound]	0.16
